Results on 8 compounds are retold here after patent US11702422B2, “Imidazopyridazines as modulators of IL-17” (Janssen Pharmaceutica NV, priority 2020, dated 2023).

Assay [1] concerns the target IL-17A(FLAG-Tagged): IL-17RA(His-Tagged) (Homo sapiens, UniProt Q16552, K93Q). In words: IL-17A(FLAG-Tagged): IL-17RA(His-Tagged) Binding Disruption Eu-HTRF Assay. As to conditions: IL-17A/IL-17RA binding disruption, simple average if tested more than once. Summed up:
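IC50 comes from a one-site competition fit of the HTRF 665/620 nm ratio. Compound dilutions (2-fold, 22 points) were held 1 h rt with FLAG-tagged IL-17A dimer, then His-tagged IL-17RA plus Eu-cryptate anti-FLAG and D2 anti-His antibodies were added for 2 h rt.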
(Time-resolved FRET reads energy transfer from a long-lived donor to a nearby acceptor.)

Assay [2] relates to IL-17A-induced G-CSF production in human normal keratinocyte (NHK). The assay is described as follows: NHK Assay: IL-17A-induced G-CSF production in human normal keratinocytes. As to conditions: Homo sapiens, Keratinocyte, 24 h, adult normal human keratinocytes, IL-17A 5 ng/mL, simple average if tested more than once. The format is cell-based. Summed up:
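Adult NHK, 3000-4000 cells/well; rhIL-17A + titrated cpd preincubated 1 h rt, then onto cells. Final: IL-17A 5 ng/mL, DMSO 0.2%, 5% FBS. 24 h, 37° C. G-CSF in supernatant by HTRF vs standard curve; IC50. Viability by CellTiter-Glo vs DMSO.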

Chain of UniProt Q16552 (Q16552 with tags, fused parts or gaps K93Q): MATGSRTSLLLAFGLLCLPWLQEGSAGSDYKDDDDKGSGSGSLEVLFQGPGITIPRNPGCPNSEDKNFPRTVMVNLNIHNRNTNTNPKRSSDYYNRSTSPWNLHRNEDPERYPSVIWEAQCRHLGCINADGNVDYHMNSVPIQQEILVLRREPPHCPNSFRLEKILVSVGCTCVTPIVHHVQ

Regarding `CC(C)n1ncc(F)c1C(=O)N[C@H](c1cn2ncc([C@H](NC(=O)CCC(F)(F)F)C3CC3)cc2n1)C1CCC(F)(F)CC1` [Example 111, N—((S)-(7-((R)-Cyclopropyl(4,4,4-trifluorobutanamido)methyl)imidazo[1,2-b]pyridazin-2-yl)(4,4-difluorocyclohexyl)methyl)-4-fluoro-1-isopropyl-1H-pyrazole-5-carboxamide], the IC50 in assay [1] was determined as 52 nM; in assay [2], 410 nM.
On the same counts, the results for `O=C(CCC(F)(F)F)N[C@@H](c1cnn2cc([C@@H](NC(=O)c3cnnn3CCCF)C3CCC(F)(F)CC3)nc2c1)C1CC1` [Example 112, N—((S)-(7-((R)-Cyclopropyl(4,4,4-trifluorobutanamido)methyl)imidazo[1,2-b]pyridazin-2-yl)(4,4-difluorocyclohexyl)methyl)-1-(3-fluoropropyl)-1H-1,2,3-triazole-5-carboxamide] are 120 nM and 160 nM.
The matching figures for `O=C(CCC(F)(F)F)N[C@@H](c1cnn2cc([C@@H](NC(=O)c3cnn(CCCF)n3)C3CCC(F)(F)CC3)nc2c1)C1CC1` [Example 113, N—((S)-(7-((R)-Cyclopropyl(4,4,4-trifluorobutanamido)methyl)imidazo[1,2-b]pyridazin-2-yl)(4,4-difluorocyclohexyl)methyl)-2-(3-fluoropropyl)-2H-1,2,3-triazole-4-carboxamide]: 430 nM and 400 nM.
On to `CC(=O)N(C)CCn1ncc(C(=O)N[C@H](c2cn3ncc([C@H](NC(=O)CCC(F)(F)F)C4CC4)cc3n2)C2CCC(F)(F)CC2)n1` [Example 114, N—((S)-(7-((R)-Cyclopropyl(4,4,4-trifluorobutanamido)methyl)imidazo[1,2-b]pyridazin-2-yl)(4,4-difluorocyclohexyl)methyl)-2-(2-(N-methylacetamido)ethyl)-2H-1,2,3-triazole-4-carboxamide], for which the 50% inhibitory concentration (IC50) in assay [1] worked out at 2100 nM; in assay [2], 370 nM.
The matching figures for `CC(C)n1nccc1C(=O)N[C@H](c1nc2cc([C@H](NC(=O)CCC(F)(F)F)C3CC3)cnn2c1F)C1CCC(F)(F)CC1` [Example 118, N—((S)-(7-((R)-Cyclopropyl(4,4,4-trifluorobutanamido)methyl)-3-fluoroimidazo[1,2-b]pyridazin-2-yl)(4,4-difluorocyclohexyl)methyl)-1-isopropyl-1H-pyrazole-5-carboxamide]: 250 nM and 370 nM.
The matching figures for `CC(C)n1nccc1C(=O)N[C@H](c1cn2ncc([C@H](NC(=O)CC3CC(F)(F)C3)C3CC3)cc2n1)C1CCC(F)(F)CC1` [Example 119, N—((S)-(7-((R)-Cyclopropyl(2-(3,3-difluorocyclobutyl)acetamido)methyl)imidazo[1,2-b]pyridazin-2-yl)(4,4-difluorocyclohexyl)methyl)-1-isopropyl-1H-pyrazole-5-carboxamide]: 96 nM and 36 nM.
As to `Cc1nocc1C(=O)N[C@H](c1cn2ncc([C@H](NC(=O)CC3CC(F)(F)C3)C3CC3)cc2n1)C1CCC(F)(F)CC1` [Example 120, N—((S)-(7-((R)-Cyclopropyl(2-(3,3-difluorocyclobutyl)acetamido)methyl)imidazo[1,2-b]pyridazin-2-yl)(4,4-difluorocyclohexyl)methyl)-3-methylisoxazole-4-carboxamide], the results for the IC50 in assay [1] and in assay [2] were 48 nM and 150 nM, respectively.
The matching figures for `O=C(CC1CC(F)(F)C1)N[C@@H](c1cnn2cc([C@@H](NC(=O)c3conc3C3CC3)C3CCC(F)(F)CC3)nc2c1)C1CC1` [Example 125, 3-Cyclopropyl-N—((S)-(7-((R)-cyclopropyl(2-(3,3-difluorocyclobutyl)acetamido)methyl)imidazo[1,2-b]pyridazin-2-yl)(4,4-difluorocyclohexyl)methyl)isoxazole-4-carboxamide]: 37 nM and 78 nM.

In general, IC50 refers to the concentration at which inhibition is half-maximal.
